The values below come from patent US5049380A, “Anti-allergic extract” (Bar-Ilan University, priority 1989, dated 1991).

What is called % Inhibition is the drop in the measured response relative to a control, in per cent. High values mean a response far below the control, low ones a response near the control.

The test system of the test is potato 5-lipoxygenase. As to the kind of experiment: Inhibition of potato 5-lipoxygenase, arachidonic acid oxidation, polarographic. Particulars: caffeic acid 0.33 mM final concentration, AA 313 2 mg. The class given is biochemical. As for the experimental part:
A reaction mixture containing 1050 units potato 5-lipoxygenase was subjected to the action of the known inhibitor caffeic acid as well as to 2 mg AA 313. Enzyme activity was tested by the ability of a sample of the reaction mixture to oxidize arachidonic acid (concentration of 0.33 mM). […] Enzyme activity was estimated polarographically.

For `O=C(O)/C=C/c1ccc(O)c(O)c1` [caffeic acid], the “% Inhibition” value is reported as 64%. Where the note is “control 1050 units”, the “Enzyme activity (units)” value stood at 375 units.
